Consider seven molecules from patent US20120213826A1, “Use of Pro-Inflammatory Compounds for Promoting Bone Formation” (Imperial Innovations Limited, priority 2009, published 2012).

Entries after “also recorded” stand apart in the source; their conditions may differ.

The subject of assay [1] is muscle-derived stromal cells (MDSC). The experiment in a line: ALP quantification assay, osteogenic differentiation of cultured MDSC. Format: cell-based, human. To be noted: for ALP expression (osteogenic differentiation) in cultured MDSC: Example 1, exogenous recombinant human factor added to MDSC culture (FIG. 8, 10, 12); for ALP expression by MDSC: 7 days in human serum-containing media with recombinant human factor (FIG. 26B, 26D). An excerpt:
The immunoglobulin isotype controls used included IgG^1 for AbBMP-2/4 and AbTGF-β, and IgG^2B for Ab-BMP-7. B: human serum containing culture medium with the addition of recombinant human BMPs and TGF-β. C: fracture supernatant±antibody neutralization of TNF-α, IL-6 and IL-1β. The IgG^1 immunoglobulin was used as the antibody isotype control. D: human serum-containing culture medium with the addition of recombinant human TNF-α, IL-6 and IL-1β. E: Alizarin red staining for bone nodule formation after culture of 1×10^4 MDSC in human serum-containing media. […] A representative image from a single well is shown. All experiments were performed 3 times, in triplicate (n=3) using MDSC from 3 donors. Values for A-D represent a mean from 3 experiments ±SEM, using supernatant from 3 donors in A and C. *: P<0.05; **: P<0.01; ***: P<0.001; 1-way ANOVA with Bonferroni's multiple comparison test in A and C and with Dunnett's multiple comparison test against the media only control in B and D.
To investigate the fracture-derived stimulus for osteogenic differentiation of MDSC, fracture supernatants were prepared using human tibial fracture fragments obtained within 24 hours of injury (ethics approval number—COREC No: 07/Q0411/30). […] Bone fragments were obtained from either fractured tibial fragments or non-traumatically cut bone slices. These were then incubated in serum free DMEM+Glutamax media for 24 hours. The supernatant was then filter sterilised to remove any contaminants and cellular debris. MDSC were then cultured in the presence of either control media, osteogenic media, fracture supernatant or non-fracture supernatant for 7 days before lysis and quantification of ALP levels.
1×10^4 human MDSC were added to wells of a 96 well plate in triplicate. At 24 hrs the media was pipetted off and replaced by 200 μl test media. The media was changed every 3 days. At 7 days the media was removed and the cells lysed in 20 μl NP-40 lysis buffer. An ALP quantification assay (WAKO pure chemical Ltd.) was used. Calibration solution from the assay was serially diluted to make concentrations of 0.25, 0.125 and 0.0625 mmol/L. To empty wells, 20 μl of each calibration solution was added. To another, dH2O was added. 100 μl reagent (1 taBIet per 5 ml buffer solution) was added to each well, and incubated at 37° C. for 20 minutes. 80 μl stop solution was then added to each well and the plate was read using an ELISA spectrometer at 405 nm wavelength. The concentration of ALP in the test wells was extrapolated from the standard curve.

Assay [2] has the same test system. Put plainly: Bone nodule formation by MDSC (alizarin red staining). Format: cell-based, human. To be noted: Example 3; recombinant cytokine at optimal dose for first 3 days, human serum-containing media (FIG. 26E). An excerpt:
FIG. 26 TNF-α and IL-6 promote osteogenic differentiation of MDSC A-D: ALP quantification assays after culture of 1×10^4 MDSC for 7 days in a 96-well plate in triplicate with: A: fracture supernatant, ±antibody neutralization of BMPs 2/4 7 and to TGF-β. The immunoglobulin isotype controls used included IgG^1 for AbBMP-2/4 and AbTGF-β, and IgG^2B for Ab-BMP-7. B: human serum containing culture medium with the addition of recombinant human BMPs and TGF-β. C: fracture supernatant±antibody neutralization of TNF-α, IL-6 and IL-1β. The IgG^1 immunoglobulin was used as the antibody isotype control. D: human serum-containing culture medium with the addition of recombinant human TNF-α, IL-6 and IL-1β. E: Alizarin red staining for bone nodule formation after culture of 1×10^4 MDSC in human serum-containing media. Recombinant human cytokine at the optimal dose indicated by D, was added for the first 3 days ONLY, and the cells were subsequently cultured in media for 32 days. A representative image from a single well is shown. All experiments were performed 3 times, in triplicate (n=3) using MDSC from 3 donors. Values for A-D represent a mean from 3 experiments ±SEM, using supernatant from 3 donors in A and C. *: P<0.05; **: P<0.01; ***: P<0.001; 1-way ANOVA with Bonferroni's multiple comparison test in A and C and with Dunnett's multiple comparison test against the media only control in B and D.
1×10^4 MDSC were added to wells of a 24-well plate in triplicate. The cells were cultured for 35-40 days in osteogenic media (DMEM with 10% fetal calf serum and 1% penicillin/streptomycin also containing 100 nM dexamethasone (SIGMA), 1 mM β-glycerol phosphate and […] ascorbic acid), supernatant or media containing recombinant cytokines (with one media change per week) the cells were fixed with 2 ml 10% neutral buffered formalin at room temperature for 15 min. The plate was then washed twice with excess PBS. 1 ml filtered 40 mM alizarin red solution (pH 4.1) was added to each well and agitated at room temperature for 30 minutes. The excess dye was then aspirated and the plate washed four times in distilled water with gentle agitation. Finally, the plates were turned upside-down on paper to dry. Bone nodules appeared red under light microscopy. Images were taken at 20 times magnification and performed as above.

The test system is the same in assay [3]. The experiment in a line: MDSC migration through a transwell membrane. Format: cell-based, human. The settings on record: for migration of MDSC: 8 μm transwell, 36 hours, recombinant cytokine in human serum-containing media (FIG. 27B). The method, then:
Migration of 1×10^4 MDSC through an 8 μm pore transwell membrane over 36 hours, in response to fracture supernatant with the addition of AbTNF-α, AbIL-6 and AbIL-1β. The IgG^1 immunoglobulin was used as the antibody control. B: Migration in response to rhTNF-α, rhIL-6 and rhIL-1β in human serum-containing media. Results represent change in cell number, expressed as a percentage of the supernatant, or media only control. Each experiment was performed 3 times (n=3) using 3 fracture supernatants (in A). Results represent mean of 3 experiments ±SEM. *: P<0.05; **: P<0.01; ***: P<0.001; 1-way ANOVA with Bonferroni's multiple comparison test.
MDSC must be recruited to the fracture site from adjacent muscle. Next we assessed the efficacy of the pro-inflammatory cytokines in attracting MDSC in vitro using a transwell assay. 1×10^4 MDSC were seeded onto a 8 μm transwell membrane in serum free media. Next day, the transwell membrane was added to a well containing 10% human serum-containing media +IL-1β, IL6 and TNFα at the end concentrations shown. At 24 hrs the membrane was cleared of any cells on the seeded side, fixed and stained. IL-1β appeared not promote MDSC chemotaxis.
500 μl serum free media was added to each well of a 24 well plate. 8 μm pore transwell membranes (VWR International Ltd) were then added to the wells. 1×10^4 MDSC in serum free media were added to the upper chamber of each transwell membrane. At 12 hours the serum-free media was replaced with test or control media or supernatant and incubated at 37° C. for 36 hours. The upper chambers were then cleared of cells and cell debris using a cotton bud, in sweeping motions. The membrane was then washed and fixed using 10% neutral buffered formalin for 1 hour. After washing, the membrane was then added to a 1% crystal violet solution for 1 hour. After further washing, the membranes were viewed under light microscopy at 20 times magnification, using an Olympus CKX41 microscope with a QICAM camera, (QIMAGING, GT vision LLC). The number of cells present on the underside of the transwell membrane in any random field was counted 3 times and the mean calculated. Cell migration was calculated against the supernatant or human serum-containing (control) media and the number expressed as a percentage relative to the control media.

Assay [4] has the same test system. The experiment in a line: MDSC proliferation (CellTiter-Glo luminescent cell viability assay). To be noted: Example 3; for MDSC proliferation: 1, 3 and 5 days in human serum-containing media ± recombinant human cytokine (FIG. 28); for cell proliferation in excess of the media-only control: recombinant human BMPs, data not shown. The format is cell-based, human. The method, then:
CellTiter-Glo® luminescent cell viability assay for MDSC in culture with A: TNF-α, B: IL-6 and C: IL-1β. 2.5×10^3 cells were cultured in triplicate for 1, 3 and 5 days in human serum-containing media ± recombinant human cytokine at the concentration indicated. The number of viaBIe cells in culture was determined using the assay, where luminescent signal is directly proportional to the concentration of ATP from viaBIe cells.
In order to test this hypothesis, proliferation of MDSC in human serum-containing media with rhTNF-α, rhIL-6 and rhIL-1β was tested using the CellTiter-Glo® luminescent cell viability assay was used (Promega Corp., Madison, Wis.).
This method assays the number of viaBIe cells in culture, by measuring adenosine triphosphate (ATP), where the luminescent signal is directly proportional to the number of ATP present.

In assay [5] the test system is murine open tibial fracture. Put plainly: Murine open tibial fracture model, periosteally stripped (histology, CT scans). The format is in vivo, C57BI/6 mice. To be noted: 28 days post injury; local administration at fracture site (TNFα 50 ng/kg and HMGB1 at time of fracture and 24 hr later) (FIG. 19, 30).

Take TGF-β: the “ALP expression (osteogenic differentiation) in cultured MDSC” value in assay [1] is “promotes osteogenic differentiation”. Moreover, the “ALP expression by MDSC” value in assay [1] (Example 3) is “did not induce ALP expression”.

Consider “IL-1β: pro-inflammatory cytokine, recombinant human IL-1β”, for which, in assay [1], the “ALP expression (osteogenic differentiation) in cultured MDSC” value is reported as “dose-dependent stimulation of ALP expression”. Moreover, the “concentration of peak ALP expression by MDSC” value in assay [1] (Example 3, variable between donor cell populations (FIG. 26D)) came to 100 µg/mL. Besides, in assay [2], the “bone nodule formation by MDSC” value is given as “did not stimulate bone nodule formation”. In addition, in assay [3] (Example 3), the “migration of MDSC” value was “did not appear to promote MDSC migration”. For the same molecule, the MDSC proliferation entry in assay [4] is “do not promote MDSC proliferation”.

For “IL-6: pro-inflammatory cytokine, recombinant human IL-6”, the “ALP expression (osteogenic differentiation) in cultured MDSC” value in assay [1] is “dose-dependent stimulation of ALP expression”. Further, the “ALP expression by MDSC” value in assay [1] (Example 3) is reported as “increased with the dose through the range tested”. Also, the “bone nodule formation by MDSC” value in assay [2] was “promoted de novo bone formation”. For the same molecule, the “chemotaxis / migration of MDSC” value in assay [3] (Example 1, transwell, 10% human serum-containing media, 24 hrs (FIG. 14)) is listed as “promote chemotaxis of MDSC”. For the same molecule, the “migration of MDSC” value in assay [3] (Example 3) is listed as “chemo attractant for MDSC”. For the same molecule, the “optimal concentration for MDSC migration” value in assay [3] (Example 3, transwell, 36 hours (FIG. 27B)) was determined as 1 ng/mL. Also, the MDSC proliferation entry in assay [4] is “do not promote MDSC proliferation”.

B1: BMP4: recombinant human bone morphogenetic protein 4 (protein, UniProt P12644 293-408, looked up)
Bone morphogenetic protein 4: SPKHHSQRARKKNKNCRRHSLYVDFSDVGWNDWIVAPPGYQAFYCHGDCPFPLADHLNSTNHAIVQTLVNSVNSSIPKACCVPTELSAISMLYLDEYDKVVLKNYQEMVVEGCGCR
B1: in assay [1] (Example 3), the “ALP expression by MDSC” value is “did not induce ALP expression”. Moreover, the “cell proliferation in excess of the media-only control” value in assay [4] is given as “did not induce cell proliferation”.

B2: BMP7: recombinant human bone morphogenetic protein 7 (protein, UniProt P18075 293-431, looked up)
Bone morphogenetic protein 7: STGSKQRSQNRSKTPKNQEALRMANVAENSSSDQRQACKKHELYVSFRDLGWQDWIIAPEGYAAYYCEGECAFPLNSYMNATNHAIVQTLVHFINPETVPKPCCAPTQLNAISVLYFDDSSNVILKKYRNMVVRACGCH
Regarding B2, the “ALP expression (osteogenic differentiation) in cultured MDSC” value in assay [1] is “promotes osteogenic differentiation”. The “ALP expression by MDSC” value in assay [1] (Example 3) is recorded as “did not induce ALP expression”. Besides, in assay [4], the “cell proliferation in excess of the media-only control” value was “did not induce cell proliferation”.

B3: IFN-γ: proinflammatory cytokine, recombinant human Interferon-gamma (protein, UniProt P01579 24-161, looked up)
Interferon gamma: QDPYVKEAENLKKYFNAGHSDVADNGTLFLGILKNWKEESDRKIMQSQIVSFYFKLFKNFKDDQSIQKSVETIKEDMNVKFFNSNKKKRDDFEKLTNYSVTDLNVQRKAIHELIQVMAELSPAAKTGKRKRSQMLFRG
As to B3, the “ALP expression (osteogenic differentiation) in cultured MDSC” value in assay [1] was “modest dose-dependent stimulation of osteogenesis”.

B4: HMGB1: damage associated molecular pattern molecule (alarmin), RAGE ligand protein (protein, UniProt P09429 1-215, looked up)
High mobility group protein B1: MGKGDPKKPRGKMSSYAFFVQTCREEHKKKHPDASVNFSEFSKKCSERWKTMSAKEKGKFEDMAKADKARYEREMKTYIPPKGETKKKFKDPNAPKRPPSAFFLFCSEYRPKIKGEHPGLSIGDVAKKLGEMWNNTAADDKQPYEKKAAKLKEKYEKDIAAYRAKGKPDAAKKGVVKAEKSKKKKEEEEDEEDEEDEEEEEDEEDEDEEEDDDDE
Take B4: the “healing of tibial fractures by CT scans” value in assay [5] is recorded as “statistically significantly enhanced healing; also recorded: accelerates fracture healing”.
